Experimental data reported in US20250270200A1, “CTPS1 INHIBITORS AND USES THEREOF” (Nimbus Clotho, Inc., priority 2022, published 2025).

Target: T1, human CTPS1 (Homo sapiens, UniProt P17812)
T1 sequence (P17812 1-591): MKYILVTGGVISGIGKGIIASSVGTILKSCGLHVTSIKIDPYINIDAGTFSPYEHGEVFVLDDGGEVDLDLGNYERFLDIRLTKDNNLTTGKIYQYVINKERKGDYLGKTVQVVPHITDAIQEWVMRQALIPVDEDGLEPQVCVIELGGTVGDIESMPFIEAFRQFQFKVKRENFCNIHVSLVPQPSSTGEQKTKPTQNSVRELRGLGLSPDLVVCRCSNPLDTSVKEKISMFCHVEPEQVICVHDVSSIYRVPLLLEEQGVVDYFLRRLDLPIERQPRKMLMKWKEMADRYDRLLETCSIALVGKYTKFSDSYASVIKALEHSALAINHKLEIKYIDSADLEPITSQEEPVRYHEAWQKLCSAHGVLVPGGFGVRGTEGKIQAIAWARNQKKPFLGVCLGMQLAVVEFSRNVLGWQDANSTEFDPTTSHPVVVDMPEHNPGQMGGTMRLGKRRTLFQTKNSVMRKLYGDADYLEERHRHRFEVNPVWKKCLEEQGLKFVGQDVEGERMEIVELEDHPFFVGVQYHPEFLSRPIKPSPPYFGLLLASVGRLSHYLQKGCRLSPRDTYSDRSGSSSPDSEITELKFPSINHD
Assay: ADP-Glo assay, human CTPS1 enzyme inhibition
Assay type: biochemical
Conditions: wild-type human CTPS1, 25 nM enzyme; ADP-Glo; read-out: ADP-Glo_WT_hCTPS1—25 nM_IC50 (IC50)
Method in brief: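 ADP-Glo luminescence quantified ADP produced by 25 nM purified human CTPS1 (full length, FLAG-His tagged) at 25° C within the linear phase. Final substrates: ATP 120 μM, UTP 160 μM, GTP 60 μM, L-glutamine 100 μM; 1% DMSO; pH 7.4 HEPES buffer with Mg2+, KCl, DTT. Compound pre-incubated with enzyme 10 min, then with ATP/UTP 10 min.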

SMILES | IC50 [nM]
CCOc1cncc(-c2cnc(C(=O)N[C@H](CN3C[C@H]4CC[C@@H]3CO4)c3cc(NS(=O)(=O)C4CC4)ccn3)s2)n1 [I-124, N-((R)-2-((1R,4R)-2-oxa-5-azabicyclo[2.2.2]octan-5-yl)-1-(4-(cyclopropanesulfonamido)pyridin-2-yl)ethyl)-5-(6-ethoxypyrazin-2-yl)thiazole-2-carboxamide] | 25 to 50
CCOc1cncc(-c2cnc(C(=O)N[C@@H](CN3C[C@@H]4CC[C@H]3CO4)c3cc(NS(=O)(=O)C4CC4)ccn3)s2)n1 [I-135, N-((S)-2-((1S,4S)-2-oxa-5-azabicyclo[2.2.2]octan-5-yl)-1-(4-(cyclopropanesulfonamido)pyridin-2-yl)ethyl)-5-(6-ethoxypyrazin-2-yl)thiazole-2-carboxamide] | ≤ 5
CCOc1cncc(-c2cnc(C(=O)N[C@H](CN3C[C@@H]4CC[C@H]3CO4)c3cc(NS(=O)(=O)C4CC4)ccn3)s2)n1 [I-136, N-((R)-2-((1S,4S)-2-oxa-5-azabicyclo[2.2.2]octan-5-yl)-1-(4-(cyclopropanesulfonamido)pyridin-2-yl)ethyl)-5-(6-ethoxypyrazin-2-yl)thiazole-2-carboxamide] | 5 to 25
CCOc1cncc(-c2cnc(C(=O)N[C@H](CN3CCCC3=O)c3cc(NS(=O)(=O)C4CC4)ccn3)s2)n1 [I-137, (R)-N-(1-(4-(cyclopropanesulfonamido)pyridin-2-yl)-2-(2-oxopyrrolidin-1-yl)ethyl)-5-(6-ethoxypyrazin-2-yl)thiazole-2-carboxamide] | 25 to 50
CCOc1cncc(-c2cnc(C(=O)N[C@H](Cn3ccccc3=O)c3cc(NS(=O)(=O)C4CC4)ccn3)s2)n1 [I-139, (R)-N-(1-(4-(cyclopropanesulfonamido)pyridin-2-yl)-2-(2-oxopyridin-1(2H)-yl)ethyl)-5-(6-ethoxypyrazin-2-yl)thiazole-2-carboxamide] | 25 to 50
CCOc1cncc(-c2cnc(C(=O)N[C@@H](Cn3ccccc3=O)c3cc(NS(=O)(=O)C4CC4)ccn3)s2)n1 [I-140, (S)-N-(1-(4-(cyclopropanesulfonamido)pyridin-2-yl)-2-(2-oxopyridin-1(2H)-yl)ethyl)-5-(6-ethoxypyrazin-2-yl)thiazole-2-carboxamide] | 5 to 25
CCOc1cncc(-c2cnc(C(=O)N(C)[C@@H](CN3CCOCC3)c3cc(NS(=O)(=O)C4CC4)ccn3)s2)n1 [I-141, (S)-N-(1-(4-(cyclopropanesulfonamido)pyridin-2-yl)-2-morpholinoethyl)-5-(6-ethoxypyrazin-2-yl)-N-methylthiazole-2-carboxamide] | 50 to 100
CCOc1cncc(-c2cnc(C(=O)N(C)[C@H](CN3CCOCC3)c3cc(NS(=O)(=O)C4CC4)ccn3)s2)n1 [I-142, (R)-N-(1-(4-(cyclopropanesulfonamido)pyridin-2-yl)-2-morpholinoethyl)-5-(6-ethoxypyrazin-2-yl)-N-methylthiazole-2-carboxamide] | > 100
CCOc1cncc(-c2ccc(C(=O)N[C@@H](CN3CCOCC3)c3cc(NS(=O)(=O)C4CC4)ccn3)c(F)c2)n1 [I-143, (S)-N-(1-(4-(cyclopropanesulfonamido)pyridin-2-yl)-2-morpholinoethyl)-4-(6-ethoxypyrazin-2-yl)-2-fluorobenzamide] | 50 to 100
CCOc1cncc(-c2ccc(C(=O)N[C@H](CN3CCOCC3)c3cc(NS(=O)(=O)C4CC4)ccn3)c(F)c2)n1 [I-144, (R)-N-(1-(4-(cyclopropanesulfonamido)pyridin-2-yl)-2-morpholinoethyl)-4-(6-ethoxypyrazin-2-yl)-2-fluorobenzamide] | 5 to 25
O=C(N[C@@H](CN1CCOCC1)c1cc(NS(=O)(=O)C2CC2)ccn1)c1ncc(-c2cnn3ccc(Cl)cc23)s1 [I-145, (S)-5-(5-chloropyrazolo[1,5-a]pyridin-3-yl)-N-(1-(4-(cyclopropanesulfonamido)pyridin-2-yl)-2-morpholinoethyl)thiazole-2-carboxamide] | 5 to 25
O=C(N[C@H](CN1CCOCC1)c1cc(NS(=O)(=O)C2CC2)ccn1)c1ncc(-c2cnn3ccc(Cl)cc23)s1 [I-146, (R)-5-(5-chloropyrazolo[1,5-a]pyridin-3-yl)-N-(1-(4-(cyclopropanesulfonamido)pyridin-2-yl)-2-morpholinoethyl)thiazole-2-carboxamide] | 5 to 25
CCOc1cncc(-c2cnc(C(=O)N[C@@H](CN3C[C@H]4CC[C@@H]3C4)c3cc(NS(=O)(=O)C4CC4)ccn3)s2)n1 [I-149, N-((S)-2-((1R,4S)-2-azabicyclo[2.2.1]heptan-2-yl)-1-(4-(cyclopropanesulfonamido)pyridin-2-yl)ethyl)-5-(6-ethoxypyrazin-2-yl)thiazole-2-carboxamide] | 50 to 100

Next, values leading:

IC50 [nM] | SMILES
25 to 50 | CCOc1cncc(-c2cnc(C(=O)N[C@@H](CN3CC[C@@]4(CCOC4)C3)c3cc(NS(=O)(=O)C4CC4)ccn3)s2)n1 [I-125, N-((S)-1-(4-(cyclopropanesulfonamido)pyridin-2-yl)-2-((R)-2-oxa-7-azaspiro[4.4]nonan-7-yl)ethyl)-5-(6-ethoxypyrazin-2-yl)thiazole-2-carboxamide]
5 to 25 | CCOc1cncc(-c2cnc(C(=O)N[C@H](CN3CC[C@@]4(CCOC4)C3)c3cc(NS(=O)(=O)C4CC4)ccn3)s2)n1 [I-126, N-((R)-1-(4-(cyclopropanesulfonamido)pyridin-2-yl)-2-((R)-2-oxa-7-azaspiro[4.4]nonan-7-yl)ethyl)-5-(6-ethoxypyrazin-2-yl)thiazole-2-carboxamide]
5 to 25 | CCOc1cncc(-c2cnc(C(=O)N[C@@H](CN3CC[C@]4(CCOC4)C3)c3cc(NS(=O)(=O)C4CC4)ccn3)s2)n1 [I-127, N-((S)-1-(4-(cyclopropanesulfonamido)pyridin-2-yl)-2-((S)-2-oxa-7-azaspiro[4.4]nonan-7-yl)ethyl)-5-(6-ethoxypyrazin-2-yl)thiazole-2-carboxamide]
50 to 100 | CCOc1cncc(-c2cnc(C(=O)N[C@@H](CN3CC[C@@](C)(O)C3)c3cc(NS(=O)(=O)C4CC4)ccn3)s2)n1 [I-129, N-((S)-1-(4-(cyclopropanesulfonamido)pyridin-2-yl)-2-((R)-3-hydroxy-3-methylpyrrolidin-1-yl)ethyl)-5-(6-ethoxypyrazin-2-yl)thiazole-2-carboxamide]
5 to 25 | CCOc1cncc(-c2cnc(C(=O)N[C@@H](CN3CC[C@](C)(O)C3)c3cc(NS(=O)(=O)C4CC4)ccn3)s2)n1 [I-130, N-((S)-1-(4-(cyclopropanesulfonamido)pyridin-2-yl)-2-((S)-3-hydroxy-3-methylpyrrolidin-1-yl)ethyl)-5-(6-ethoxypyrazin-2-yl)thiazole-2-carboxamide]
5 to 25 | CCOc1cncc(-c2cnc(C(=O)N[C@H](CN3CC[C@](C)(O)C3)c3cc(NS(=O)(=O)C4CC4)ccn3)s2)n1 [I-131, N-((R)-1-(4-(cyclopropanesulfonamido)pyridin-2-yl)-2-((S)-3-hydroxy-3-methylpyrrolidin-1-yl)ethyl)-5-(6-ethoxypyrazin-2-yl)thiazole-2-carboxamide]
5 to 25 | CCOc1cncc(-c2cnc(C(=O)N[C@H](CN3CC[C@@](C)(O)C3)c3cc(NS(=O)(=O)C4CC4)ccn3)s2)n1 [I-132, N-((R)-1-(4-(cyclopropanesulfonamido)pyridin-2-yl)-2-((R)-3-hydroxy-3-methylpyrrolidin-1-yl)ethyl)-5-(6-ethoxypyrazin-2-yl)thiazole-2-carboxamide]
5 to 25 | CCOc1cncc(-c2cnc(C(=O)N[C@@H](CN3CCCOCC3)c3cc(NS(=O)(=O)C4CC4)ccn3)s2)n1 [I-134, (S)-N-(1-(4-(cyclopropanesulfonamido)pyridin-2-yl)-2-(1,4-oxazepan-4-yl)ethyl)-5-(6-ethoxypyrazin-2-yl)thiazole-2-carboxamide]
5 to 25 | CCOc1cncc(-c2cnc(C(=O)N[C@@H](CN3CCCC3=O)c3cc(NS(=O)(=O)C4CC4)ccn3)s2)n1 [I-138, (S)-N-(1-(4-(cyclopropanesulfonamido)pyridin-2-yl)-2-(2-oxopyrrolidin-1-yl)ethyl)-5-(6-ethoxypyrazin-2-yl)thiazole-2-carboxamide]
5 to 25 | CCOc1cncc(-c2cnc(C(=O)N[C@@H](CN3CCN(C)C(=O)C3)c3cc(NS(=O)(=O)C4CC4)ccn3)s2)n1 [I-147, (S)-N-(1-(4-(cyclopropanesulfonamido)pyridin-2-yl)-2-(4-methyl-3-oxopiperazin-1-yl)ethyl)-5-(6-ethoxypyrazin-2-yl)thiazole-2-carboxamide]
5 to 25 | CCOc1cncc(-c2cnc(C(=O)N[C@H](CN3CCN(C)C(=O)C3)c3cc(NS(=O)(=O)C4CC4)ccn3)s2)n1 [I-148, (R)-N-(1-(4-(cyclopropanesulfonamido)pyridin-2-yl)-2-(4-methyl-3-oxopiperazin-1-yl)ethyl)-5-(6-ethoxypyrazin-2-yl)thiazole-2-carboxamide]
